According to ChEMBL document CHEMBL1201862, “PubChem BioAssay data set” (2004):
Where “and” joins values, the source holds several entries; their conditions need not be identical. Equal entries are not always repeated.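 Values below derive from 48-hour exposures of cells grown in 96-well plates, with endpoints linearly interpolated between the two concentrations bracketing the appropriate inhibition level. GI50 marks 50% less growth.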 Calls of active or inactive are those of the source. Rule as the data show it: active = GI50 up to about 1.1 µM and inactive = higher. Starred links: 1 amine or outer side, 2 acyl side, 3 side chain; linkers in the order of their positions; H or OH if unused. Residues, ends and D or L forms follow the SMILES beside them. *: point of attachment. γGlu = O=C(O)[CH](CCC(=O)[*:2])N[*:1]; NHOH = ON*

How the values were obtained:
Assay in all cases: inhibition of tumour cell growth, NCI panel, 48 h
KM12 = system: KM12
LOX IMVI = system: LOX IMVI
SW-620 = system: SW-620
NCI-H226 = system: NCI-H226
CCRF-CEM = system: CCRF-CEM
A549 = system: A549
MDA-MB-435 = system: MDA-MB-435
M14 = system: M14
DU-145 = system: DU-145
SK-MEL-28 = system: SK-MEL-28
NCI-H460 = system: NCI-H460
SF-268 = system: SF-268
HCT-116 = system: HCT-116
ACHN = system: ACHN
HCC 2998 = system: HCC 2998
SK-OV-3 = system: SK-OV-3
RPMI-8226 = system: RPMI-8226
SR = system: SR
COLO 205 = system: COLO 205

Measured: GI50

Cn1c(=O)c2nc(CCCCC(=O)O)[nH]c2n(C)c1=O
inactive: KM12 > 100 µM | LOX IMVI > 100 µM | SW-620 > 100 µM | NCI-H226 > 100 µM | CCRF-CEM > 100 µM | A549 > 100 µM | MDA-MB-435 > 100 µM | M14 > 100 µM | DU-145 > 100 µM | SK-MEL-28 > 100 µM | NCI-H460 > 100 µM | SF-268 > 100 µM | HCT-116 > 100 µM | ACHN > 100 µM | HCC 2998 > 100 µM

COc1ccc(C[C@H]2COC(=O)[C@@H]2Cc2ccccc2)cc1OC
inactive: SK-OV-3 > 100 µM | KM12 > 100 µM | LOX IMVI > 100 µM | SW-620 > 100 µM | NCI-H226 > 100 µM | CCRF-CEM > 100 µM | A549 > 100 µM | DU-145 > 100 µM | SK-MEL-28 > 100 µM | RPMI-8226 > 100 µM | NCI-H460 > 100 µM | HCT-116 > 100 µM | SR > 100 µM | ACHN > 100 µM

CCOC(=O)c1nc(SC)sc1NC(=O)c1ccc(OC)cc1
inactive: SK-OV-3 63.1 µM | KM12 > 100 µM | LOX IMVI > 100 µM | COLO 205 28.8 µM | SW-620 49.1 µM | NCI-H226 28.1 µM | CCRF-CEM > 100 µM | A549 29.7 µM | MDA-MB-435 > 100 µM | M14 > 100 µM | DU-145 > 100 µM | SK-MEL-28 75 µM | RPMI-8226 > 100 µM | NCI-H460 35.6 µM | SF-268 > 100 µM | HCT-116 19.5 µM | ACHN 47.8 µM | HCC 2998 43.6 µM

COc1ccc(OC)c2sc(N3C(=O)/C(=C/c4cccc(Oc5ccccc5)c4)N=C3c3ccccc3)nc12
inactive: SK-OV-3 > 100 µM | KM12 70 µM | LOX IMVI 65.3 µM | COLO 205 51.8 µM | SW-620 51.1 µM | CCRF-CEM 29.9 µM | A549 > 100 µM | MDA-MB-435 29.3 µM | M14 > 100 µM | DU-145 > 100 µM | SK-MEL-28 > 100 µM | RPMI-8226 38.8 µM | NCI-H460 > 100 µM | SF-268 > 100 µM | HCT-116 85.1 µM | ACHN > 100 µM | HCC 2998 > 100 µM

Cc1ccc(S(=O)(=O)NC(=O)NCCC(=O)O)cc1
inactive: SK-OV-3 > 100 µM | KM12 > 100 µM | LOX IMVI > 100 µM | COLO 205 > 100 µM | SW-620 > 100 µM | CCRF-CEM > 100 µM | A549 > 100 µM | M14 > 100 µM | DU-145 > 100 µM | SK-MEL-28 > 100 µM | RPMI-8226 > 100 µM | NCI-H460 > 100 µM | SF-268 > 100 µM | HCT-116 > 100 µM | SR > 100 µM | ACHN > 100 µM

COc1cc(-c2c(C(C)=O)c(-c3ccccc3)n(C3OC(COC(C)=O)C(OC(C)=O)C(OC(C)=O)C3OC(C)=O)c(=S)c2C#N)ccc1O (centres undefined)
inactive: KM12 71.6 µM and 89.5 µM | LOX IMVI > 100 µM and 66.5 µM | COLO 205 97.1 µM | SW-620 > 100 µM | CCRF-CEM 58.3 µM | A549 > 100 µM and 88.7 µM | MDA-MB-435 57.1 µM and 35.4 µM | M14 > 100 µM | DU-145 55.3 µM and 58.1 µM | SK-MEL-28 > 100 µM | NCI-H460 75.5 µM | SF-268 > 100 µM | HCT-116 70.8 µM | SR > 100 µM | ACHN 55.3 µM

COc1ccc(C(NS(=O)(=O)c2ccc(C)cc2)c2c(C(CBr)OC)c3ccccc3n2S(=O)(=O)c2ccccc2)cc1OC (centres undefined)
inactive: SK-OV-3 > 100 µM | KM12 > 100 µM | LOX IMVI > 100 µM | COLO 205 > 100 µM | SW-620 > 100 µM | NCI-H226 > 100 µM | CCRF-CEM 89.7 µM | A549 > 100 µM | MDA-MB-435 > 100 µM | M14 > 100 µM | DU-145 > 100 µM | SK-MEL-28 > 100 µM | NCI-H460 > 100 µM | SF-268 > 100 µM | HCT-116 > 100 µM | ACHN > 100 µM | HCC 2998 > 100 µM

COc1ccc(C2=NN(C(=O)c3ccccc3)C(O)(c3cc(F)c(Cl)cc3Cl)C2)cc1OC (centres undefined)
inactive: SK-OV-3 20.9 µM | KM12 > 100 µM | LOX IMVI 97.1 µM | COLO 205 > 100 µM | SW-620 > 100 µM | NCI-H226 > 100 µM | CCRF-CEM > 100 µM | A549 93.8 µM | MDA-MB-435 31.8 µM | M14 73.6 µM | DU-145 39 µM | SK-MEL-28 49.8 µM | RPMI-8226 38 µM | NCI-H460 83.2 µM | SF-268 55.5 µM | HCT-116 50 µM | ACHN 32.5 µM | HCC 2998 30.9 µM

CC1CC/C(=C\c2ccc(F)cc2)C2=C1C(c1ccc(F)cc1)n1c(s/c(=C/c3cccc(Br)c3)c1=O)=N2 (centres undefined)
inactive: SK-OV-3 > 100 µM | KM12 > 100 µM | LOX IMVI > 100 µM | SW-620 > 100 µM | CCRF-CEM > 100 µM | A549 > 100 µM | MDA-MB-435 > 100 µM | M14 > 100 µM | DU-145 > 100 µM | SK-MEL-28 > 100 µM | RPMI-8226 > 100 µM | SF-268 > 100 µM | HCT-116 > 100 µM | SR > 100 µM | ACHN > 100 µM

Cc1cc(C)nc(NS(=O)(=O)c2ccc(NN=c3c4ccccc4n(C)c4ccccc34)cc2)n1
inactive: SK-OV-3 27.2 µM | KM12 52.7 µM | LOX IMVI 23.7 µM | COLO 205 29.7 µM | SW-620 26.1 µM | NCI-H226 40.2 µM | CCRF-CEM 15.7 µM | A549 35.4 µM | MDA-MB-435 23.8 µM | M14 35.5 µM | DU-145 37 µM | SK-MEL-28 37 µM | RPMI-8226 27.5 µM | NCI-H460 29.6 µM | SF-268 25.6 µM | HCT-116 25.7 µM | ACHN 21.6 µM | HCC 2998 28.3 µM

COc1ccc(C(=O)/C=C2\c3ccccc3C(=O)N2C)cc1
inactive: SK-OV-3 74.8 µM | KM12 62.8 µM | LOX IMVI 46.8 µM | COLO 205 55 µM | SW-620 > 100 µM | CCRF-CEM 44.8 µM | A549 58.6 µM | MDA-MB-435 36.9 µM | M14 48.6 µM | DU-145 > 100 µM | SK-MEL-28 > 100 µM | RPMI-8226 41.5 µM | NCI-H460 36.1 µM | SF-268 61.2 µM | HCT-116 59.3 µM | SR 33.5 µM | ACHN 89.5 µM

COC(=O)CC(c1cn(S(=O)(=O)c2ccc(C)cc2)c2ccccc12)C1C[C@@H](C(=O)OC)N(C(=O)OC(C)(C)C)C1=O (some centres undefined)
inactive: KM12 71.9 µM | LOX IMVI 20.8 µM | COLO 205 26.7 µM | SW-620 12.5 µM | NCI-H226 > 100 µM | CCRF-CEM 9.18 µM | A549 27 µM | MDA-MB-435 41 µM | M14 > 100 µM | DU-145 87.1 µM | SK-MEL-28 > 100 µM | RPMI-8226 8.77 µM | NCI-H460 26.6 µM | SF-268 53.6 µM | HCT-116 14.9 µM | SR 3.08 µM | ACHN 12.5 µM

CCOC(=O)C(Cc1ccc(OC(=O)c2ccc(OC)cc2)cc1)NC(=O)C(F)(F)F (centres undefined)
inactive: SK-OV-3 > 100 µM | KM12 > 100 µM | LOX IMVI > 100 µM | COLO 205 > 100 µM | SW-620 > 100 µM | NCI-H226 > 100 µM | CCRF-CEM 39.5 µM | A549 > 100 µM | MDA-MB-435 > 100 µM | M14 > 100 µM | DU-145 > 100 µM | RPMI-8226 > 100 µM | NCI-H460 > 100 µM | SF-268 35.6 µM | HCT-116 > 100 µM | ACHN 53.6 µM | HCC 2998 > 100 µM

Cc1ccc(S(=O)(=O)CC2(Br)CCc3ccccc3C2=O)cc1 (centres undefined)
inactive: SK-OV-3 39.7 µM | KM12 41 µM | LOX IMVI 32 µM | COLO 205 18.1 µM | SW-620 18 µM | NCI-H226 41.8 µM | A549 45.3 µM | MDA-MB-435 16.5 µM | M14 45.4 µM | DU-145 74.8 µM | SK-MEL-28 17.2 µM | RPMI-8226 38.1 µM | NCI-H460 > 100 µM | SF-268 16.6 µM | HCT-116 47.1 µM | SR 1.38 µM | ACHN 19.8 µM

NN/C(=N\S(=O)(=O)c1ccc(-c2ccccn2)s1)Nc1ccc(Cl)cc1
inactive: SK-OV-3 88.9 µM | KM12 > 100 µM | LOX IMVI > 100 µM | COLO 205 > 100 µM | SW-620 > 100 µM | NCI-H226 75.2 µM | A549 59 µM | M14 > 100 µM | DU-145 > 100 µM | SK-MEL-28 > 100 µM | RPMI-8226 > 100 µM | NCI-H460 > 100 µM | SF-268 22.1 µM | HCT-116 > 100 µM | ACHN > 100 µM

CCOC(=O)CNC(=O)C(CCC(=O)NO)NC(=O)CCC(N)C(=O)O (centres undefined) (γGlu-Glu(NHOH)-Gly-OEt; configuration not given here)
inactive: SK-OV-3 > 100 µM | KM12 > 100 µM | LOX IMVI > 100 µM | COLO 205 > 100 µM | SW-620 > 100 µM | NCI-H226 > 100 µM | CCRF-CEM > 100 µM | A549 > 100 µM | MDA-MB-435 > 100 µM | M14 > 100 µM | DU-145 > 100 µM | SK-MEL-28 > 100 µM | RPMI-8226 > 100 µM | NCI-H460 > 100 µM | SF-268 > 100 µM | HCT-116 > 100 µM | ACHN > 100 µM | HCC 2998 > 100 µM
